Source: US6596036B2, “Method for the production of a dye preparation based on madder root” (Coöperatie Rubia U.A., priority 2000, dated 2003)

Columns and labels:
[1] = solubility in water (statement in Example 3); type: physicochemical; settings: stated to explain the reaction speed in the madder root extraction mixture
Protocol: After analysis of the reaction mixture it follows that within 60 minutes all LP is converted into LUC. After the reaction vessel is opened, LUC is converted into NOR, a step which takes 6 hours. When oxygen is present LUC can not be detected, which means that its conversion is much faster than in the present experimental situation. […] Therefore, it is in general difficult for the enzyme to oxidize the solid LUC to NOR. However, when the reaction is performed under oxygen LUC cannot crystalize, because it is immediately oxidized to NOR.

[2] = stated as known, no test described; cited from earlier work

solubility in water [1] | SMILES | mutagenicity [2]
not soluble in water | O=C1c2ccccc2C(=O)c2c1cc(O)c(CO)c2O [LUC, lucidin] | mutagenic
insoluble in water | O=Cc1c(O)cc2c(c1O)C(=O)c1ccccc1C2=O [NOR, nordamnacanthal] | 
